In brackets after ≈: the same amount, converted by molar mass.
Key:
[1] = target: T1, AChE from electric eel (Electrophorus electricus) (Electrophorus electricus, UniProt O42275); assay: HPTLC-(Ox)-AChE-I assay, immersion method (plates immersed in AChE solution); type: biochemical; details: without oxidation
T1 construct: purchased Sigma-Aldrich GmbH (Steinheim, Germany)
Procedure: (§1) LiChrospher 10 × 20 cm HPTLC Silica gel 60 F254s plates (Merck, Darmstadt, Germany) with a layer thickness of 170–190 µm and spherical silica particles with a size of 7 µm were used. The HPTLC plates were immersed twice in 2-propanol for 20 min, each time followed by a drying step at room temperature for 20 min. The plates then were pre-developed with methanol, dried for 20 min at room temperature, heated at 105 °C for 20 min, and stored in a desiccator for further use. The automatic TLC Sampler 4 (ATS 4, CAMAG AG, Muttenz, Switzerland) was used for sample application. The desired sample volumes were sprayed as 6-mm-wide bands onto the HPTLC plates with an application speed of 300 nL/s. The distances of the exterior bands from the edges of the plates were 15 mm. The distance from the bottom edge was 8 mm for all bands. Methanol was used as rinsing solvent. The following further application parameters were used: filling speed 15 µL/s, pre-dosage volume 200 nL, retraction volume 200 nL, rinsing vacuum time 4 s, filling vacuum time 0 s, rinsing cycles 2, and filling cycles 1. The development of the HPTLC plates was realized by the Automated Multiple Development 2 (AMD 2, CAMAG, Muttenz, Switzerland). The OTPs, their oxons, and environmental samples were separated with an eluent mixture of cyclohexane, dichloromethane, and acetone in different proportions and with increasing migration distances (Fig. S2). After each development step, a drying step of 3 min under vacuum followed. The final migration distance was 80 mm and the whole procedure took approximately 45 min. In addition, a simpler development process was used containing only the last step of the previous described method.
(§2) After chromatographic development, 10 mL of freshly prepared NBS (100 µg/mL) was sprayed onto the HPTLC plates with a glass reagent sprayer, followed by a 5-min incubation at room temperature. The following AChE-I assay was performed in parts according to Mendoza et al., Stütz et al., and Weins and Jork. AChE was buffered in TRIS/HCl at a pH of 7.8 (2.5 U/mL). The AChE solution was either sprayed onto the HPTLC plates with a glass reagent sprayer until the plates were evenly moist (approx. 10 mL) or the plates were immersed in the AChE solution using the Chromatogram Immersion Device 3 (CID 3, CAMAG, Muttenz, Switzerland). The immersion volume, speed, time, and depth were approx. 200 mL, 2.5 cm/s, 2 s, and approx. 85 mm, respectively. Afterward, the plates were placed separately in closed plastic boxes, which contained paper towels moistened with water to gain a saturated atmosphere. An incubation at 37 °C for 5 min followed. The substrate indoxyl acetate was freshly prepared in methanol at a concentration of 20 mg/mL and 5 mL was sprayed onto the HPTLC plates with a glass reagent sprayer. During 45-min incubation time at room temperature, AChE cleaves the substrate into indoxyl and acetate. The indoxyl reacts with oxygen to the blue indigo dye. When AChE was inhibited, no indigo was produced and the spot stayed white. The TLC Scanner 3 (CAMAG, Muttenz, Switzerland) was used to scan each track on the plates at 670 nm using the fluorescence mode without optical filter. The CAMAG-embedded software Wincats (Vers. 1.4.9) was used to provide chromatograms of each track and to evaluate inhibition zones.
Several amounts of an OTP mix and an oxon mix were applied on HPTLC plates (Tab. S2) and tested as described in the “Combination of HPTLC and AChE-inhibition assay” section. Three plates were used for each dilution series. The application volume was 10 µL for investigating OTPs with following oxidation and 100 µL for testing OTPs without following oxidation. The application volume for the oxons was 10 µL. They were tested without oxidation step also in triplicates. The peak heights were used for evaluation. Only peaks that have a signal-to-noise ratio ≥ 3 were considered in the evaluation. The height next to the respective peak defines the noise. […]

[2] = target: T1, AChE from electric eel (Electrophorus electricus); assay: HPTLC-(Ox)-AChE-I assay, spray method (AChE sprayed onto plates); type: biochemical
Procedure: as §1
as §2, with “The” for “After chromatographic development, 10 mL of freshly prepared NBS (100 µg/mL) was sprayed onto the HPTLC plates with a glass reagent sprayer, followed by a 5-min incubation at room temperature. The”
Several amounts of an OTP mix and an oxon mix were applied on HPTLC plates (Tab. S2) and tested as described in the “Combination of HPTLC and AChE-inhibition assay” section. Three plates were used for each dilution series. The application volume was 10 µL for investigating OTPs with following oxidation and 100 µL for testing OTPs without following oxidation. The application volume for the oxons was 10 µL. They were tested without oxidation step also in triplicates. The peak heights were used for evaluation. Only peaks that have a signal-to-noise ratio ≥ 3 were considered in the evaluation. The height next to the respective peak defines the noise.

[3] = target: T1, AChE from electric eel (Electrophorus electricus); assay: Recovery of AChE-I effect peak area in spiked water samples after SPE and HPTLC-Ox-AChE-I (spray); details: for Recovery of the effect peak area related to positive control (100%): spiked 100 ng OTP, SPE, 10 ng/spot, NBS oxidation, spray, ± SD, n = 4; for AChE-I effect recoveries in comparison to the positive control, range over samples: samples from stormwater retention basin and receiving stream, after SPE and HPTLC-Ox-AChE-I
Procedure: The samples were enriched by SPE within 24 h after sampling. Moreover, the field blank and water for a SPE blank were enriched in the same way. For additional matrix investigations, 1 mL malathion, parathion, and chlorpyrifos (100 ng/mL in methanol) were spiked into native samples taken in August 2020 and a water control before being loaded on the SPE cartridges. The cartridges (150 mg, Oasis HLB 6 cc, Waters GmbH, Eschborn, Germany) were conditioned with methanol (2 × 5 mL) and equilibrated with water (2 × 5 mL), before being loaded with 1000 ± 5 mL sample (the exact volume was determined by weighting) through a polytetrafluoroethylene tube. After drying the cartridges under vacuum, they were stored at − 18 °C until further usage. The cartridges were eluted with methanol (5 × 5 mL) that was evaporated afterward at 60 °C under a gentle nitrogen gas stream. The dried extracts were redissolved in 1 mL methanol to achieve a nominal 1000-fold enrichment.
The extracts, spiked samples, positive controls (PC: mix of malathion, parathion, and chlorpyrifos), and blanks were tested with the HPTLC-Ox-AChE-I method as described in the “Combination of HPTLC and AChE-inhibition assay” section. Each sample was tested in duplicates on two HPTLC plates (n = 4). The application volume was 100 µL resulting in a PC of 2000 ng/spot. The resulting amounts for the matrix investigation were 1000 and 10 ng/spot for the PCs and 10 ng/spot for the spiked samples. The matrix investigation was performed with and without the oxidation step. Excel was used to relate the peak areas of the spiked samples to the peak areas of the PCs (10 ng/spot). Differences between both approaches (oxidation and no oxidation) were shown by comparing the results of the spiked samples and PCs.

[4] = target: T1, AChE from electric eel (Electrophorus electricus); assay: AChE-inhibition microtiter assay (Ellman, 96-well, with or without NBS oxidation); type: biochemical; details: no oxidation, 4-PL fit, n = 4
Procedure: Stock solutions (1 mg/mL) of NBS and ascorbic acid were each freshly prepared before the test and then diluted to 10 µg/mL and 100 µg/mL, respectively. The assay was performed with modifications according to Ellman’s method. OTPs, oxons, water, and methanol blanks (15 µL) were each mixed with 15 µL of NBS (10 µg/mL) in a 96-well plate. After an incubation at room temperature for 5 min, the reaction was stopped by adding 15 µL ascorbic acid (100 µg/mL). For the test setup without oxidation, OTPs, oxons, water, and methanol blanks (15 µL) were mixed with 30 µL water per well. Subsequently, 200 µL of a DTNB solution (0.15 mM), buffered in TRIS/HCl at a pH of 7.4, was added to each well of both test setups. Then, 20 µL of an AChE solution (0.5 U/mL), also buffered in TRIS/HCl at a pH of 7.4, was added. An incubation at 30 °C for 30 min without shaking followed. An ATCL solution (0.8 mM) was freshly prepared with water and 30 µL per well was added after incubation. During another incubation at room temperature for 30 min, ATCL was cleaved by AChE into thiocholine and acetic acid. Thiocholine reacts with DTNB to 2-nitro-5-thiobenzoate. The absorbance of the yellow-colored anion was photometrically measured at 405 nm (Sunrise Remote, Tecan Group AG, Männedorf, Schweiz).
Dilution series with eight concentrations of the three OTPs and related oxons (Tab. S1) were freshly prepared from stock solutions (1–10 mg/mL) in methanol. The OTPs and oxons were tested in duplicates with and without prior oxidation in two measurements as described in the “AChE-inhibition microtiter assay” section. Eight water and eight methanol blanks were tested per test setup (oxidation and no oxidation). Of these, two were tested without AChE and two without ATCL. The mean AChE activity (absorption at 405 nm, n = 4) was related to the specific inhibitor dose. The statistic program Prism (version 5.00, Graph Pad Software, San Diego, USA) was used to generate dose–response curves (4-PL fit) and to determine inhibition concentrations (ICs) for the three OTPs and related oxons. The 95% confidence intervals of the curves and the standard deviations of the mean AChE activity were also calculated. The lower boundary of the curves is fixed to 0 and the highest mean activity defines 100%.

[5] = spray method, without oxidation
[6] = Spiked water (ultrapure water control)
[7] = sampling point Stormwater basin
[8] = OTPs 100 µL, oxons 10 µL applied, peak heights, n = 3
[9] = spray method, without oxidation, OTPs 100 µL, oxons 10 µL applied, peak heights, n = 3

T1 sequence (O42275 24-633): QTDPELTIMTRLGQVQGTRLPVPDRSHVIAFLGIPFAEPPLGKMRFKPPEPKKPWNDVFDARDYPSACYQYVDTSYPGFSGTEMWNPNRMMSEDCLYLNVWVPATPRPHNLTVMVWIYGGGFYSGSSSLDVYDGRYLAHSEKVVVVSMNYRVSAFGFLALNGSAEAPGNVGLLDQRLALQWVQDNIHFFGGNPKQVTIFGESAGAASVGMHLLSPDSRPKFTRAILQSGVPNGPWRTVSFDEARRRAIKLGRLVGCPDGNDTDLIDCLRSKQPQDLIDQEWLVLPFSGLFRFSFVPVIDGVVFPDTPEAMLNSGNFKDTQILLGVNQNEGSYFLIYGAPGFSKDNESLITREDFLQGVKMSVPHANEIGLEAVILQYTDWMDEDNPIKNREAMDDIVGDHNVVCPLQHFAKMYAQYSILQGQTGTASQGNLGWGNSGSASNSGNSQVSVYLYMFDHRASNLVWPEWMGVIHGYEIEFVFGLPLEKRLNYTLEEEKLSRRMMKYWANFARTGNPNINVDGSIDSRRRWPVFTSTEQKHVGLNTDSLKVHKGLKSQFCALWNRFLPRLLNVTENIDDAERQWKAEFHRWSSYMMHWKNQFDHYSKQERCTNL

| SMILES | LOD immersion method (first detected AChE-I peak with signal-to-noise ratio ≥ 3) [1] [ng/spot] | LOD spray method (first detected AChE-I peak with signal-to-noise ratio ≥ 3) [2, 5] [ng/spot] | Recovery of the effect peak area related to positive control (100%) [3, 6] [%] | AChE-I effect recoveries in comparison to the positive control, range over samples [3] | Recovery of the effect peak area related to positive control (100%) ([3]; sampling point Downstream) [%] | Recovery of the effect peak area related to positive control (100%) [3, 7] [%] | Recovery of the effect peak area related to positive control (100%) ([3]; sampling point Upstream) [%] | IC10 (10% AChE inhibition), best fit [1, 8] [ng/spot] | IC20 (20% AChE inhibition), best fit [1, 8] [ng/spot] | IC50 (50% AChE inhibition), best fit [1, 8] [ng/spot] | IC80 (80% AChE inhibition), best fit [1, 8] [ng/spot] | IC10 (10% AChE inhibition), best fit [2, 9] [ng/spot] | IC20 (20% AChE inhibition), best fit [2, 9] [ng/spot] | IC50 (50% AChE inhibition), best fit [2, 9] [ng/spot] | IC80 (80% AChE inhibition), best fit [2, 9] [ng/spot] | Effect of higher NBS concentration on AChE on the HPTLC plate ([2]; 1 mg/mL NBS tested for oxidation on HPTLC plate, application method not stated) | IC80 ([4]; read-out: IC20 (inhibition concentration for 20% AChE activity), best fit) [mg/L] | IC20 ([4]; read-out: IC80 (inhibition concentration for 80% AChE activity), best fit) [mg/L] |
| --- | --- | --- | --- | --- | --- | --- | --- | --- | --- | --- | --- | --- | --- | --- | --- | --- | --- | --- |
| CCOP(=S)(OCC)Oc1nc(Cl)c(Cl)cc1Cl [Chlorpyrifos, chlorpyrifos] | 500 | 250 | 63 ± 4 | 69–78% | 69 ± 5 | 74 ± 5 | 78 ± 7 | – | – | – | – | – | – | – | – | – | – | – |
| CCOC(=O)CC(SP(=S)(OC)OC)C(=O)OCC (stereo not shown) [Malathion, malathion] | 250 | 250 | 85 ± 6 | – | 87 ± 12 | 81 ± 8 | 92 ± 11 | 313 | 536 | 1343 | 3363 | 212 | 493 | 2096 | 8910 | – | – | – |
| O=C1CCC(=O)N1Br [NBS, N-Bromosuccinimide] | – | – | – | – | – | – | – | – | – | – | – | – | – | – | – | lower activity or inhibition of AChE | – | – |
| CCOP(=O)(OCC)Oc1ccc([N+](=O)[O-])cc1 [Paraoxon, paraoxon] | – | – | – | – | – | – | – | 0.60 | 0.99 | – | 5.4 | 0.79 | 1.2 | – | 5.9 | – | 0.071 (≈ 0.258 µM) | 0.016 (≈ 0.0581 µM) |
| CCOP(=S)(OCC)Oc1ccc([N+](=O)[O-])cc1 [Parathion, parathion] | 500 | 100 | 74 ± 3 | 75–82% | 79 ± 13 | 75 ± 9 | 82 ± 10 | – | – | – | – | – | – | – | – | – | – | – |

— PMC9124651, “High-performance thin-layer chromatography in combination with an acetylcholinesterase-inhibition bioassay with pre-oxidation of organothiophosphates to determine neurotoxic effects in storm, waste, and surface water” (Analytical and Bioanalytical Chemistry, 2022)
